Source: ChEMBL document CHEMBL6092146 (Bioorg Med Chem, 2024)
≈ marks a conversion by molar mass, not a printed value.

Assays:
HepG2 [1] = test: cells; details: Homo sapiens, HepG2, 72 h
Description: Anticancer activity against human HepG2 cells assessed as reduction in cell viability incubated for 72 hrs by MTT assay

cells = details: Homo sapiens, SPCA1, 72 h
Description: Anticancer activity against human SPCA1 cells assessed as reduction in cell viability incubated for 72 hrs by MTT assay

HeLa [2] = test: cells; details: Homo sapiens, 72 h
Description: Anticancer activity against human HeLa cells assessed as reduction in cell viability incubated for 72 hrs by MTT assay

HCT-116 = test: cells; details: Homo sapiens, HCT-116, 72 h
Description: Anticancer activity against human HCT-116 cells assessed as reduction in cell viability incubated for 72 hrs by MTT assay

CNE-2 = test: Anticancer activity against human CNE-2 cells assessed as reduction in cell viability incubated for 72 hrs by MTT assay; format: functional, cell-based; details: CNE-2, 72 h
[3] = Antiproliferative activity against human GBM-0627-GFD cells assessed as reduction in cell viability by MTT assay; format: functional, cell-based
MDA-MB-231 = test: cells; format: functional, cell-based; details: Homo sapiens, MDA-MB-231, 48 h
Description: Anticancer activity against human MDA-MB-231 cells assessed as reduction in cell growth incubated for 48 hrs by MTT assay

Cholinesterase = Cholinesterase (Equus caballus, UniProt P81908); test: Inhibition of equine serum BuChE using butyrylthiocholine iodide as substrate measured for 30 mins by ELLman's method
Acetylcholinesterase = Acetylcholinesterase (Electrophorus electricus, UniProt O42275); test: Inhibition of electric eel AchE using acetylthiocholine as substrate incubated for 30 mins by Ellman's method
Escherichia coli = test: microbe, parasite or virus in culture
Description: Antibacterial activity against Escherichia coli assessed as inhibition of bacterial growth by broth microdilution method

Staphylococcus aureus = test: microbe, parasite or virus in culture; details: Staphylococcus aureus, 171, 24 h
Description: Antimicrobial activity against methicillin-resistant Staphylococcus aureus 171 clinical isolate assessed as bacterial growth inhibition incubated for 24 hrs by CLSI based broth microdilution method

Acinetobacter baumannii = test: microbe, parasite or virus in culture; details: ATCC 19606
Description: Antibacterial activity against Acinetobacter baumannii ATCC 19606 assessed as inhibition of bacterial growth by broth microdilution method

Pseudomonas aeruginosa = test: microbe, parasite or virus in culture; details: Pseudomonas aeruginosa, 126, 24 h
Description: Antibacterial activity against multidrug-resistant Pseudomonas aeruginosa 126 clinical isolate assessed as reduction in bacterial growth incubated for 24 hrs by CLSI based broth microdilution method

SK-OV-3 = test: cells; format: functional, cell-based; details: Homo sapiens, SK-OV-3, 48 h
Description: Anticancer activity against human SK-OV-3 cells assessed as reduction in cell growth incubated for 48 hrs by MTT assay

CNE = test: cells; format: functional, cell-based; details: Homo sapiens, 48 h
Description: Anticancer activity against human CNE cells assessed as reduction in cell growth incubated for 48 hrs by MTT assay

HEK-293T = test: Antiproliferative activity against HEK293T cells assessed as reduction in cell viability incubated for 48 hrs by CCK-8 assay; format: functional, cell-based; details: Homo sapiens
HeLa [4] = test: Antiproliferative activity against human HeLa cells assessed as reduction in cell viability incubated for 48 hrs by CCK-8 assay; format: functional, cell-based
MCF7 = test: Antiproliferative activity against human MCF7 cells assessed as reduction in cell viability incubated for 48 hrs by CCK-8 assay; format: functional, cell-based; details: MCF7, 48 h
HepG2 [5] = test: cells; details: Homo sapiens, HepG2, 48 h
KB = test: Antiproliferative activity against human KB cells assessed as reduction in cell viability incubated for 48 hrs by CCK-8 assay; format: functional, cell-based

Acetylcholinesterase, sequence (O42275 whole entry): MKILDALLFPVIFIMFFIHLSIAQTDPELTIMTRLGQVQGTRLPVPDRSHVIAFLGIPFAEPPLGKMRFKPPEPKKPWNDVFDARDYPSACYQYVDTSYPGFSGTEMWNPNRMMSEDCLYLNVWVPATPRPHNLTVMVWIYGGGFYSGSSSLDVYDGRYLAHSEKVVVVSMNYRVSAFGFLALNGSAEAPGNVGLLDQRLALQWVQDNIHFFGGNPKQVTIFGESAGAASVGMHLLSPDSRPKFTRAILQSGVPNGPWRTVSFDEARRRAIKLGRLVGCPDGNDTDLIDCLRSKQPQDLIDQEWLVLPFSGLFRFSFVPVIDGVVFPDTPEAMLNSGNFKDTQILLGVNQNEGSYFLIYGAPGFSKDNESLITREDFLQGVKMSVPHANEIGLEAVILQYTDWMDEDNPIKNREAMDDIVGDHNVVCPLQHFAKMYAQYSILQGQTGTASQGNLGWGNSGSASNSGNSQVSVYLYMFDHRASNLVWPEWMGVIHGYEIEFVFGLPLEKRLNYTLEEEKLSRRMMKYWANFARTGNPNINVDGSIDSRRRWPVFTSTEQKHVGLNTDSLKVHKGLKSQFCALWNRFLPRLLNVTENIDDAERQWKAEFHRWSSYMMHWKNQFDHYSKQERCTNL
Cholinesterase, sequence (P81908 whole entry): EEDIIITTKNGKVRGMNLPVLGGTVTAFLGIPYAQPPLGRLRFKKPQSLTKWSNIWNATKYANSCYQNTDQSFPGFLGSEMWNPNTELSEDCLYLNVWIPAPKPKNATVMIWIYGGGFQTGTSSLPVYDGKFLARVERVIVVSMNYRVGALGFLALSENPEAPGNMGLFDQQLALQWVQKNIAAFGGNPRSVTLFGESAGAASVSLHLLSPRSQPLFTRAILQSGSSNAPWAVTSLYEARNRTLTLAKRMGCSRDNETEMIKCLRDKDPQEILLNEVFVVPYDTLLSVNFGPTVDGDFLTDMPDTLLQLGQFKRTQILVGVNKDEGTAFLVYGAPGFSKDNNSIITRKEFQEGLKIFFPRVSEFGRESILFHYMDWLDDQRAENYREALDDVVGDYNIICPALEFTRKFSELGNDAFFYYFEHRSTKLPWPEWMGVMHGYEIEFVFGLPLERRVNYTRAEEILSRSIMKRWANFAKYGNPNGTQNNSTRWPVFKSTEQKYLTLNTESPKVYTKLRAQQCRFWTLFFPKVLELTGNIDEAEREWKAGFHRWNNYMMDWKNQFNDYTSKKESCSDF

CCOP(=O)(OCC)C(NC(=O)c1cc(O)c2c(c1)C(=O)c1cccc(O)c1C2=O)c1cccc(Cl)c1 (configuration not stated)
IC50 (HepG2 [1]): 39.2 µM
IC50 (cells): 28.3 µM
IC50 (HeLa [2]): 35.2 µM
IC50 (HCT-116): 48.2 µM
IC50 (CNE-2): 68 µM

CCOP(=O)(OCC)C(NC(=O)c1cc(O)c2c(c1)C(=O)c1cccc(O)c1C2=O)c1cccc(OC)c1 (configuration not stated)
IC50 (cells): 28.3 µM
IC50 (CNE-2): 24.1 µM

CCOP(=O)(OCC)C(NC(=O)c1cc(O)c2c(c1)C(=O)c1cccc(O)c1C2=O)c1ccccc1OC (configuration not stated)
IC50 (cells): 15 µM
IC50 (CNE-2): 28.6 µM

CCOP(=O)(OCC)C(NC(=O)c1cc(O)c2c(c1)C(=O)c1cccc(O)c1C2=O)c1ccccc1 (configuration not stated)
IC50 (cells): 27.4 µM
IC50 (CNE-2): 34.3 µM

CCOP(=O)(OCC)C(NC(=O)c1cc(O)c2c(c1)C(=O)c1cccc(O)c1C2=O)c1ccc(OC)cc1 (configuration not stated)
IC50 (cells): 38.9 µM
IC50 (CNE-2): 42.9 µM

CCOP(=O)(OCC)C(C)(NC(=O)c1cc(O)c2c(c1)C(=O)c1cccc(O)c1C2=O)c1ccc(C)cc1 (configuration not stated)
IC50 (cells): 16.9 µM
IC50 (HeLa [2]): > 50 µM
IC50 (HCT-116): 30.6 µM
IC50 (CNE-2): 33.8 µM

CCOP(=O)(OCC)C(C)(NC(=O)c1cc(O)c2c(c1)C(=O)c1cccc(O)c1C2=O)c1ccccc1 (configuration not stated)
IC50 (cells): 25.1 µM
IC50 (HeLa [2]): > 50 µM
IC50 (HCT-116): 23.4 µM
IC50 (CNE-2): 38.3 µM

CCOP(=O)(OCC)C(C)(CCc1ccccc1)NC(=O)c1cc(O)c2c(c1)C(=O)c1cccc(O)c1C2=O (configuration not stated)
IC50 (cells): 9.01 µM
IC50 (HeLa [2]): 45.4 µM
IC50 (HCT-116): 12.7 µM
IC50 (CNE-2): 27.3 µM

O=C(CCCCCNC(=O)c1cc(O)c2c(c1)C(=O)c1cccc(O)c1C2=O)NO
IC50 [3]: 5.5 µM

Cc1ccc(Nc2ncnc3ccc(NC(=O)c4cc(OCc5ccccc5)c5c(c4)C(=O)c4cccc(OCc6ccccc6)c4C5=O)cc23)cc1
IC50 (MDA-MB-231): 3.1 µM

O=C(NCCCCCCCCNc1c2c(nc3ccccc13)CCCC2)c1cc(O)c2c(c1)C(=O)c1cccc(O)c1C2=O
IC50 (Cholinesterase): 0.36 µM
IC50 (Acetylcholinesterase): 0.148 µM

COc1ccc(C[n+]2ccc(CCCOC(=O)c3cc(O)c4c(c3)C(=O)c3cccc(O)c3C4=O)cc2)cc1.[Br-]
MIC (Escherichia coli): > 128 µg/mL
MIC (Staphylococcus aureus): 16 µg/mL
MIC (Acinetobacter baumannii): 128 µg/mL
MIC (Pseudomonas aeruginosa): 32 µg/mL

O=C(NCCCCCCNc1c2c(nc3cc(Cl)ccc13)CCCC2)c1cc(O)c2c(c1)C(=O)c1cccc(O)c1C2=O
IC50 (Cholinesterase): 0.773 µM
IC50 (Acetylcholinesterase): 0.022 µM

Cc1ccc(C[n+]2ccc(CCCOC(=O)c3cc(O)c4c(c3)C(=O)c3cccc(O)c3C4=O)cc2)cc1.[Br-]
MIC (Escherichia coli): 64 µg/mL
MIC (Staphylococcus aureus): 8 µg/mL
MIC (Acinetobacter baumannii): > 128 µg/mL
MIC (Pseudomonas aeruginosa): 16 µg/mL

COc1ccc(Nc2ncnc3ccc(NC(=O)c4cc(OCc5ccccc5)c5c(c4)C(=O)c4cccc(OCc6ccccc6)c4C5=O)cc23)cc1
IC50 (SK-OV-3): > 100 µM
IC50 (MDA-MB-231): 42.4 µM
IC50 (CNE): 24.8 µM

N#Cc1ccc(C[n+]2ccc(CCCNC(=O)c3cc(O)c4c(c3)C(=O)c3cccc(O)c3C4=O)cc2)cc1.[Br-]
MIC (Escherichia coli): 64 µg/mL
MIC (Staphylococcus aureus): 16 µg/mL
MIC (Acinetobacter baumannii): > 128 µg/mL
MIC (Pseudomonas aeruginosa): 32 µg/mL

COc1cccc(Nc2ncnc3ccc(NC(=O)c4cc(OCc5ccccc5)c5c(c4)C(=O)c4cccc(OCc6ccccc6)c4C5=O)cc23)c1
IC50 (SK-OV-3): 68.6 µM
IC50 (MDA-MB-231): 74.1 µM
IC50 (CNE): 56.4 µM

CCCCOc1cccc2c1C(=O)c1c(OCCCC)cc(C(=O)N[C@H](C(=O)O)C(C)C)cc1C2=O
IC50 (HEK-293T): 43.1 µM
IC50 (HeLa [4]): 67.8 µM
IC50 (MCF7): > 100 µM
IC50 (HepG2 [5]): 54.4 µM
IC50 (KB): 28.6 µM

N[C@@H](CCCCNC(=O)c1cc(O)c2c(c1)C(=O)c1cccc(O)c1C2=O)C(=O)O
IC50 [3]: > 80 µM

O=C(NCCCCCCNc1c2c(nc3ccccc13)CCC2)c1cc(O)c2c(c1)C(=O)c1cccc(O)c1C2=O
IC50 (Cholinesterase): 0.219 µM
IC50 (Acetylcholinesterase): 0.543 µM

CC(C)c1ccc(COc2cccc3c2C(=O)c2c(OCc4ccc(C(C)C)cc4)cc(C(=O)N[C@H](C(=O)O)C(C)C)cc2C3=O)cc1
IC50 (HEK-293T): 1.9 µM
IC50 (HeLa [4]): 37.5 µM
IC50 (MCF7): 13.9 µM
IC50 (HepG2 [5]): 5.8 µM
IC50 (KB): 9.4 µM

O=C(Nc1ccc2ncnc(Nc3ccc(F)cc3)c2c1)c1cc(OCc2ccccc2)c2c(c1)C(=O)c1cccc(OCc3ccccc3)c1C2=O
IC50 (SK-OV-3): 20.5 µM
IC50 (MDA-MB-231): 3 µM
IC50 (CNE): 12.4 µM

CC(C)[C@H](NC(=O)c1cc(OCc2ccccc2)c2c(c1)C(=O)c1cccc(OCc3ccccc3)c1C2=O)C(=O)O
IC50 (HEK-293T): 21.5 µM
IC50 (HeLa [4]): 44.9 µM
IC50 (MCF7): 36.5 µM
IC50 (HepG2 [5]): 36.1 µM
IC50 (KB): 15.6 µM

O=C(NCCCCNc1c2c(nc3ccccc13)CCCC2)c1cc(O)c2c(c1)C(=O)c1cccc(O)c1C2=O
IC50 (Cholinesterase): 0.286 µM
IC50 (Acetylcholinesterase): 0.0587 µM

Cc1cccc(Nc2ncnc3ccc(NC(=O)c4cc(OCc5ccccc5)c5c(c4)C(=O)c4cccc(OCc6ccccc6)c4C5=O)cc23)c1
IC50 (SK-OV-3): > 100 µM
IC50 (MDA-MB-231): 49.9 µM
IC50 (CNE): 5.9 µM

CC(C)[C@H](NC(=O)c1cc(OCc2cccc(F)c2)c2c(c1)C(=O)c1cccc(OCc3cccc(F)c3)c1C2=O)C(=O)O
IC50 (HEK-293T): 12.9 µM
IC50 (HeLa [4]): 35.4 µM
IC50 (MCF7): 38.6 µM
IC50 (HepG2 [5]): 29.6 µM
IC50 (KB): 17.8 µM

CC(C)[C@H](NC(=O)c1cc(OCCCc2ccccc2)c2c(c1)C(=O)c1cccc(OCCCc3ccccc3)c1C2=O)C(=O)O
IC50 (HEK-293T): 1.6 µM
IC50 (HeLa [4]): 9.4 µM
IC50 (MCF7): 4.5 µM
IC50 (HepG2 [5]): 3.6 µM
IC50 (KB): 4.9 µM

CO/N=C(\C(=O)N[C@@H]1C(=O)N2C(C(=O)O)=C(COC(N)=O)CS[C@H]12)c1ccco1 [CEFUROXIME]
MIC (Escherichia coli): 64 µg/mL (≈ 151 µM)
MIC (Staphylococcus aureus): 1020 µg/mL (≈ 2410 µM)
MIC (Acinetobacter baumannii): 1020 µg/mL (≈ 2410 µM)
MIC (Pseudomonas aeruginosa): 1020 µg/mL (≈ 2410 µM)

O=c1[nH]cc(F)c(=O)[nH]1 [FLUOROURACIL]
IC50 (HepG2 [1]): 30 µM
IC50 (cells): 42.2 µM
IC50 (CNE-2): 40.2 µM
